Results: article PMC6250127 (Journal of medicinal chemistry, 2015)
Entries after “also recorded” stand apart in the source; their conditions may differ. Where two headings read alike, the source gives them in different places.

Legend:
[1] = PC12 cell viability, direct effect of compound; details: rat
PC12 cells [2] = test: Neuroprotection against 6-OHDA-induced toxicity in PC12 cells; details: 24 h pretreatment, then 75 μM 6-OHDA for 24 h
reserpinized rats = test: Reversal of reserpine-induced hypolocomotion in rats; format: in vivo, rat; details: for reversal of reserpine-induced hypolocomotion (locomotor activity): 10 μMol/kg ip, reserpine 5 mg/kg sc, 18 h pretreatment, rats; for duration of locomotor activation: 10 μMol/kg, reserpinized rats, locomotion monitored for 6 h
human D3 receptor = human D3 receptor (Homo sapiens, UniProt P35462); test: Stimulation of [35S]GTPγS binding, human D3 receptor in CHO cells; format: biochemical; details: for Emax: read-out: hCHO−D3 Emax, percent of Emax observed with 100 μM DA; for D2/D3: ratio of GTPγS EC50 values
human D2 receptor = human D2 receptor (Homo sapiens, UniProt P14416); test: Stimulation of [35S]GTPγS binding, human D2 receptor in CHO cells; format: biochemical; details: for Emax: read-out: hCHO−D2 Emax, percent of Emax observed with 1 mM DA; for hCHO−D2 Emax: percent of Emax observed with 1 mM DA
PC12 cells [3] = test: PC12 cell viability, direct effect of compound; details: PC12 cells, 0.01− 30 μM
rat D3 receptor [4] = target: T1, rat D3 receptor (Rattus norvegicus, UniProt P19020); test: [3H]spiroperidol competition binding, rat D3 receptor in HEK-293 cells; details: for D2L/D3: ratio of Ki values, selectivity for D3
rat D2L receptor = rat D2L receptor (Rattus norvegicus, UniProt P61169); test: [3H]spiroperidol competition binding, rat D2L receptor in HEK-293 cells
rat D3 receptor [5] = target: T1, rat D3 receptor; details: ratio of Ki values; cited from earlier work

human D2 receptor, sequence (P14416 whole entry): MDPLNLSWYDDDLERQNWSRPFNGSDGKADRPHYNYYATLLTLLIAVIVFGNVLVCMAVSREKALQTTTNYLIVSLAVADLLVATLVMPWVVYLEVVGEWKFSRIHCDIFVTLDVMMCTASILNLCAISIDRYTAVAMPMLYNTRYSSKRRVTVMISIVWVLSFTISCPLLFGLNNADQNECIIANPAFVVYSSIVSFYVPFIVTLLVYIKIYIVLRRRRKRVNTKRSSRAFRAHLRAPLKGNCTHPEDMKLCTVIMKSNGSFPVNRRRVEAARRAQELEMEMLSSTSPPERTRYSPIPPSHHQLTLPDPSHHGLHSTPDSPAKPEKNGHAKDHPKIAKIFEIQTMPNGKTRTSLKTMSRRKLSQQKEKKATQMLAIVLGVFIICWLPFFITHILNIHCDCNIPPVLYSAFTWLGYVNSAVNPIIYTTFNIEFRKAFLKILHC
human D3 receptor, sequence (P35462 whole entry): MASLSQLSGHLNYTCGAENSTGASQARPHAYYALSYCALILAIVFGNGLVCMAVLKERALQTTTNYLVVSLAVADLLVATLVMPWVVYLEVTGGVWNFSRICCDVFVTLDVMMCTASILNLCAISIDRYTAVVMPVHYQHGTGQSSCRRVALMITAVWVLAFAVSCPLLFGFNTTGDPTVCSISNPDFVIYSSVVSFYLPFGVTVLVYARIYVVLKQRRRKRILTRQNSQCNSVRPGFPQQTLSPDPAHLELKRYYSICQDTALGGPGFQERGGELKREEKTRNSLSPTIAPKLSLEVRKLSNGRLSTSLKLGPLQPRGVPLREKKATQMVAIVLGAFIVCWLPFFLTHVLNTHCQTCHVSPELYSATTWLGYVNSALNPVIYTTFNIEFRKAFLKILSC
T1 sequence (P19020 whole entry): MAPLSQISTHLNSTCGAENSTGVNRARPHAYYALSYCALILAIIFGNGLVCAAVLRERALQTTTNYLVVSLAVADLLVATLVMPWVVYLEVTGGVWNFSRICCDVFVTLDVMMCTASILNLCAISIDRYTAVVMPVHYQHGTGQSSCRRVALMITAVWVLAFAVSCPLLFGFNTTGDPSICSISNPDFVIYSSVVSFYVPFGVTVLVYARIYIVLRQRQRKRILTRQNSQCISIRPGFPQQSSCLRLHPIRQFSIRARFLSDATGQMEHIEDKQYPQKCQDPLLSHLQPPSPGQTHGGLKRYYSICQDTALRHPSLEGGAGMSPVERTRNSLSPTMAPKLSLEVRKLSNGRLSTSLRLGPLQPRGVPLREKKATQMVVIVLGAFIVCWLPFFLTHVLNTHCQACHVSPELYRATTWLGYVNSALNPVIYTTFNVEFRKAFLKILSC
rat D2L receptor, sequence (P61169 whole entry): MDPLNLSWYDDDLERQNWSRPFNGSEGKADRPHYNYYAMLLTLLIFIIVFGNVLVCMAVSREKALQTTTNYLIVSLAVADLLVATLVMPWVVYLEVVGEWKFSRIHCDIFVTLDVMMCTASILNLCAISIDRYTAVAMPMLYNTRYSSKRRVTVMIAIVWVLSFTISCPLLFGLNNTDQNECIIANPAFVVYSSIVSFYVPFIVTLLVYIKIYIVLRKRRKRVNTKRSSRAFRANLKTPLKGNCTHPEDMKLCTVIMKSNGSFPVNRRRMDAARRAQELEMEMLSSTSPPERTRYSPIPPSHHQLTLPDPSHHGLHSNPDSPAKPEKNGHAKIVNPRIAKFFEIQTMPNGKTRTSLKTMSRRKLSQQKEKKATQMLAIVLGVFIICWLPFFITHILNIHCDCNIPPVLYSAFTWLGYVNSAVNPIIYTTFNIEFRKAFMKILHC

SMILES: NCCc1cc(O)c(O)cc1O [6-OHDA, 6-hydroxydopamine, reference compound]
- viability at 24 h, 75 μM [1]: ~50%

SMILES: CCCN(CCN1CCN(c2ccc3cc[nH]c3c2Cl)CC1)[C@H]1CCc2nc(N)sc2C1.O=C(O)C(F)(F)F [(−)-21a, (S)-N^6-(2-(4-(7-Chloro-1H-indol-6-yl)piperazin-1-yl)ethyl)-N^6-propyl-4,5,6,7-tetrahydrobenzo[d]thiazole-2,6-diamine]
- neuroprotective effect against 6-OHDA-induced toxicity (PC12 cells [2]): neuroprotective; also recorded: dose-dependently protected the cells from the neurotoxic insult
- reversal of reserpine-induced hypolocomotion (locomotor activity) (reserpinized rats): highly effcacious in reversing hypolocomotion; also recorded: highly efficacious in reversing akinesia in rats
- duration of locomotor activation (reserpinized rats): long duration of action; also recorded: significant enhancement of locomotion for the entire duration of the study of 6 h
- Emax (human D3 receptor): > 100%
- Emax (human D2 receptor): > 100%
- effect of compound alone on cell viability (PC12 cells [3]): no cell loss at all

SMILES: C#CCN(CCN1CCN(c2ccc3[nH]ccc3c2Cl)CC1)[C@H]1CCc2nc(N)sc2C1 [(−)-34, (S)-N^6-(2-(4-(4-Chloro-1H-indol-5-yl)piperazin-1-yl)ethyl)-N^6-(prop-2-yn-1-yl)-4,5,6,7-tetrahydrobenzo[d]thiazole-2,6-diamine]
- Ki (rat D3 receptor [4]): 14.4 ± 1 nM
- D2L/D3 (rat D3 receptor [4]): 5.99
- reversal of reserpine-induced hypolocomotion (locomotor activity) (reserpinized rats): able to elevate locomotor activity in the above PD animal model significantly; also recorded: locomotor activity was enhanced compared to control but was less than that observed with (−)-21a
- EC50 (human D3 receptor): 10.9 ± 2.4 nM
- D2/D3 (human D3 receptor): 1.98
- Emax (human D3 receptor): 94 ± 3.5%
- EC50 (human D2 receptor): 21.6 ± 9.6 nM
- hCHO−D2 Emax (human D2 receptor): 26.7 ± 6.4%
- Ki (rat D2L receptor): 86.5 ± 15 nM

SMILES: C#CCN(CCN1CCN(c2ccc3cc[nH]c3c2Cl)CC1)[C@H]1CCc2nc(N)sc2C1 [(−)-36, (S)-N^6-(2-(4-(7-Chloro-1H-indol-6-yl)piperazin-1-yl)ethyl)-N^6-(prop-2-yn-1-yl)-4,5,6,7-tetrahydrobenzo[d]thiazole-2,6-diamine]
- Ki (rat D3 receptor [4]): 0.145 ± 0.035 nM
- D2L/D3 (rat D3 receptor [4]): 1186
- EC50 (human D3 receptor): 0.84 ± 0.05 nM
- hCHO−D3 Emax (human D3 receptor; percent of Emax observed with 100 μM DA): 93.4 ± 3.6%
- D2/D3 (human D3 receptor): 46.9
- Emax (human D3 receptor): ~100%
- EC50 (human D2 receptor): 39.4 ± 6.3 nM
- hCHO−D2 Emax (human D2 receptor): 86.8 ± 3.8%
- Emax (human D2 receptor): ~100%
- Ki (rat D2L receptor): 172 ± 16 nM

SMILES: CCCN(CCN1CCN(C(=O)c2c[nH]c3ccccc23)CC1)C1CCc2nc(N)sc2C1 [D-443, (4-(2-((2-amino-4,5,6,7-tetrahydrobenzo[d]-thiazol-6-yl)(propyl)amino)ethyl)-piperazin-1-yl)(1H-indol-3-yl)methanone]
- D2L/D3 (rat D3 receptor [5]): 360

SMILES: CCCN(CCC)CCc1cccc2c1CC(=O)N2 [ropinirole, reference compound]
- reversal of reserpine-induced hypolocomotion (locomotor activity) (reserpinized rats): quick onset of locomotor activation compared to control
- duration of locomotor activation (reserpinized rats): much shorter duration of action compared with (−)-21a
